From PubChem BioAssay AID1845204 (Molecular Pharmacology Branch, DTP, NCI, 2023)

Tested on: HSSY-II tumor spheroid viability
Assay: Anticancer human tumor HSSY-II cell line growth inhibition;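 note: spheroids exposed to compounds for seven days before reading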;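 for viability, T/C: percent of DMSO vehicle control viability so 100% = untreated level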
Details: spheroids with HUVEC and MSC; for IC50: curve of first compound; for viability, T/C: stronger effect = lower value
From the text: Multicellular complex tumor spheroid response to DNA repair inhibitors in combination with DNA-damaging drugs
This study explores the anticancer activities of DNA-damaging drugs and inhibitors of DNA damage repair, both as single agents and in combinations. Complex tumor spheroids comprised of malignant cells, endothelial cells and mesenchymal stem cells served as an in vitro model for human solid tumors. This model system incorporates physiologically relevant features and patient-derived or established malignant cell lines with clinically relevant genetic alterations from many tumor types. Twenty-six patient-derived or established malignant cell lines were evaluated representing sarcoma, melanoma, small cell lung cancer (SCLC), non-small cell lung cancer (NSCLC), as well as bladder, ovarian and pancreatic cancers. The concentration ranges selected for each drug and investigational agent were based upon clinically achievable concentrations if the clinical Cmax of the agent was known.
Compounds. The drugs and compounds olaparib (NSC753686), talazoparib (NSC767125), berzosertib (NSC777718), elimusertib (NSC800525), nedisertib (NSC802822), VX-984 (NSC792969), AZD-1390 (NSC803789), temozolomide (NSC362856), topotecan (NSC609699), trabectedin (NSC813783), staurosporine (NSC755774), and gemcitabine (NSC613327) were obtained from the National Cancer Institute (NCI) Developmental Therapeutics Program Chemical Repository. The FDA-approved anticancer drug set is available from the Developmental Therapeutics Program at https://dtp.cancer.gov/organization/dscb/obtaining/available_plates.htm. […] The stock solutions were prepared in dimethyl sulfoxide (DMSO, Sigma-Aldrich, St. Louis, MO, cat. D2650) at 400-fold the tested concentration and stored at -70 degrees C. Prior to their use, the stock solutions were diluted in fresh medium and the final DMSO concentration in the assay was 0.25% (v/v). All drugs and investigational agents were tested over a range starting from a high concentration at or near the clinical Cmax and decreasing in half-log increments. If the clinical Cmax for an agent had not been determined, the highest concentration tested was 10 microM.
Cell Lines. The patient-derived cancer cell (PDC) lines: 156681-154-R-J1-PDC, 283228-195-R-J1-PDC, 287954-098-R-J1-PDC, 292921-168-R-J2-PDC, 349418-098-R-PDC, 425362-245-T-J1-PDC, 556581-035-R-J1-PDC, and BL0293-F563-PDC were received from the NCI Patient-Derived Models Repository (PDMR, https://pdmr.cancer.gov). The established cell lines HS-SY-2 (RRID:CVCL_8719), MPNST, and SYO-1 (RRID:CVCL_7146) were obtained from the Sloan Kettering Institute. The alveolar soft parts sarcoma cell line ASPS-1 (RRID:CVCL_S738) was established at the NCI and grown from internal seed stocks. The following established cell lines were purchased from the American Type Culture Collection (ATCC, Manassas, VA): G-401 (ATCC, cat. CRL-1441, RRID:CVCL_0270), SW982 (ATCC, cat. HTB-93, RRID:CVCL_1734), VA-ES-BJ (ATCC, cat. CRL-2138, RRID:CVCL_1785), NCI-H719 (ATCC, cat. CRL-5837, RRID:CVCL_1582), NCI-H196 (ATCC, cat. CRL-5823, RRID:CVCL_1509), NCI-H841 (ATCC, cat. CRL-5845, RRID:CVCL_1595), NCI-H1618 (ATCC, cat. CRL-5879, RRID:CVCL_1480), NCI-H1876 (ATCC, cat. CRL-5902, RRID:CVCL_1503), DMS 114 (ATCC, cat. CRL-2066; RRID:CVCL_1174), NCI-H211 (ATCC, cat. CRL-5824; RRID:CVCL_1529), and SW 1271 (ATCC, cat. CRL-2177, RRID:CVCL_1716). The small cell lung cancer cell line COR-L88 was purchased from Sigma-Aldrich (cat. 92031917-1VL, RRID:CVCL_1141). The non-small cell lung cancer cell lines NCI-H226 (RRID:CVCL_1544) and NCI-H322M (RRID:CVCL_1557) were established at the NCI and grown from internal seed stocks. Pooled donor human umbilical vein endothelial cells (HUVEC, Lonza, cat. CC-2519) and human mesenchymal stem cells (hMSC, Lonza, cat. PT-2501) were purchased from Lonza (Walkersville, MD).
Cell Culture. All cells were maintained in an incubator at 37 degrees C and 5% CO2 with 95% humidity. […]

SMILES: CC1COCCN1c1cc(-c2ccnn2C)c2ccnc(-c3ccn[nH]3)c2n1 (stereo not given) + Cn1nnc2c(C(N)=O)ncn2c1=O
- IC50 (second compound 1 µM): < 31.6 nM
- IC50 (second compound 3.16 µM): < 31.6 nM
- IC50 (second compound 10 µM): < 31.6 nM
- IC50 (second compound 31.6 µM): < 31.6 nM
- IC50 (second compound 100 µM): < 31.6 nM
- viability, T/C (second compound 1 µM, first compound 0.0316 µM): 29%
- viability, T/C (second compound 1 µM, first compound 0.1 µM): 6.4%
- viability, T/C (second compound 1 µM, first compound 0.316 µM): 2.45%
- viability, T/C (second compound 1 µM, first compound 1 µM): 1.92%
- viability, T/C (second compound 1 µM, first compound 3.16 µM): 1.78%
- viability, T/C (second compound 1 µM, first compound 10 µM): 2.4%
- viability, T/C (second compound 3.16 µM, first compound 0.0316 µM): 25.1%
- viability, T/C (second compound 3.16 µM, first compound 0.1 µM): 6.11%
- viability, T/C (second compound 3.16 µM, first compound 0.316 µM): 2.71%
- viability, T/C (second compound 3.16 µM, first compound 1 µM): 2.03%
- viability, T/C (second compound 3.16 µM, first compound 3.16 µM): 1.93%
- viability, T/C (second compound 3.16 µM, first compound 10 µM): 2.28%
- viability, T/C (second compound 10 µM, first compound 0.0316 µM): 19%
- viability, T/C (second compound 10 µM, first compound 0.1 µM): 6.18%
- viability, T/C (second compound 10 µM, first compound 0.316 µM): 2.63%
- viability, T/C (second compound 10 µM, first compound 1 µM): 2%
- viability, T/C (second compound 10 µM, first compound 3.16 µM): 1.88%
- viability, T/C (second compound 10 µM, first compound 10 µM): 2.59%
- viability, T/C (second compound 31.6 µM, first compound 0.0316 µM): 16.2%
- viability, T/C (second compound 31.6 µM, first compound 0.1 µM): 4.45%
- viability, T/C (second compound 31.6 µM, first compound 0.316 µM): 2.43%
- viability, T/C (second compound 31.6 µM, first compound 1 µM): 2%
- viability, T/C (second compound 31.6 µM, first compound 3.16 µM): 2.1%
- viability, T/C (second compound 31.6 µM, first compound 10 µM): 2.35%
- viability, T/C (second compound 100 µM, first compound 0.0316 µM): 6.2%
- viability, T/C (second compound 100 µM, first compound 0.1 µM): 4.15%
- viability, T/C (second compound 100 µM, first compound 0.316 µM): 2.65%
- viability, T/C (second compound 100 µM, first compound 1 µM): 2.04%
- viability, T/C (second compound 100 µM, first compound 3.16 µM): 1.79%
- viability, T/C (second compound 100 µM, first compound 10 µM): 1.82%

SMILES: Cn1ncnc1[C@H]1c2n[nH]c(=O)c3cc(F)cc(c23)N[C@@H]1c1ccc(F)cc1 + CC[C@@]1(O)C(=O)OCc2c1cc1n(c2=O)Cc2cc3c(CN(C)C)c(O)ccc3nc2-1
- IC50 (second compound 0.003 µM): < 9.49 nM
- IC50 (second compound 0.00949 µM): < 9.49 nM
- IC50 (second compound 0.03 µM): < 9.49 nM
- IC50 (second compound 0.0949 µM): < 9.49 nM
- IC50 (second compound 0.3 µM): < 9.49 nM
- viability, T/C (second compound 0.003 µM, first compound 0.00949 µM): 29.2%
- viability, T/C (second compound 0.003 µM, first compound 0.03 µM): 16.7%
- viability, T/C (second compound 0.003 µM, first compound 0.0949 µM): 9.97%
- viability, T/C (second compound 0.003 µM, first compound 0.3 µM): 6.78%
- viability, T/C (second compound 0.003 µM, first compound 0.949 µM): 5.19%
- viability, T/C (second compound 0.003 µM, first compound 3 µM): 4.32%
- viability, T/C (second compound 0.00949 µM, first compound 0.00949 µM): 7.72%
- viability, T/C (second compound 0.00949 µM, first compound 0.03 µM): 5.97%
- viability, T/C (second compound 0.00949 µM, first compound 0.0949 µM): 5.6%
- viability, T/C (second compound 0.00949 µM, first compound 0.3 µM): 5.88%
- viability, T/C (second compound 0.00949 µM, first compound 0.949 µM): 5.84%
- viability, T/C (second compound 0.00949 µM, first compound 3 µM): 3.69%
- viability, T/C (second compound 0.03 µM, first compound 0.00949 µM): 5.64%
- viability, T/C (second compound 0.03 µM, first compound 0.03 µM): 5.6%
- viability, T/C (second compound 0.03 µM, first compound 0.0949 µM): 5.25%
- viability, T/C (second compound 0.03 µM, first compound 0.3 µM): 5.52%
- viability, T/C (second compound 0.03 µM, first compound 0.949 µM): 4.93%
- viability, T/C (second compound 0.03 µM, first compound 3 µM): 3.48%
- viability, T/C (second compound 0.0949 µM, first compound 0.00949 µM): 4.26%
- viability, T/C (second compound 0.0949 µM, first compound 0.03 µM): 4.04%
- viability, T/C (second compound 0.0949 µM, first compound 0.0949 µM): 3.48%
- viability, T/C (second compound 0.0949 µM, first compound 0.3 µM): 3.91%
- viability, T/C (second compound 0.0949 µM, first compound 0.949 µM): 3.43%
- viability, T/C (second compound 0.0949 µM, first compound 3 µM): 2.72%
- viability, T/C (second compound 0.3 µM, first compound 0.00949 µM): 3.45%
- viability, T/C (second compound 0.3 µM, first compound 0.03 µM): 4.01%
- viability, T/C (second compound 0.3 µM, first compound 0.0949 µM): 3.37%
- viability, T/C (second compound 0.3 µM, first compound 0.3 µM): 3.5%
- viability, T/C (second compound 0.3 µM, first compound 0.949 µM): 2.94%
- viability, T/C (second compound 0.3 µM, first compound 3 µM): 2.13%
